# Laboratory results as given in patent publication US20240247024A1, “INHIBITORS OF NICOTINAMIDE N-METHYL TRANSFERASE (NNMT)” (UNIVERSITEIT LEIDEN, priority 2021, published 2024).
# Several values for one entry are separate records, joined by “and”; a condition that tells them apart may be missing. Equal entries are not always repeated. Where two headings read alike, the source gives them in different places.
# Experiments:
# [1] = tested on: HSC-2 human oral cancer cell line; assay: MTT cell proliferation assay, HSC-2; type: cell-based; details: for % of DMSO control at 100 μM, HSC-2, 24 h: 24 h incubation; for % of DMSO control at 100 μM, HSC-2, 48 h: 48 h incubation; for % of DMSO control at 100 μM, HSC-2, 72 h: 72 h incubation
# Method: (§1) UROTsa immortalized human urothelium cell line, HSC-2 human oral cancer cell line, T24 human bladder cancer cell line and A549 human lung cancer line were purchased from the American Type Culture Collection (ATCC, Rockville, MD, USA), and cultured in DMEM/F12 medium, supplemented with 10% fetal bovine serum and 50 μg/ml gentamicin, at 37° C. in a humidified 5% CO2 incubator. For each compound tested, powder was dissolved in DMSO at 100 mM concentration. This stock solution was then diluted in culture medium to final concentration values ranging between 1 μM and 100 μM. For each sample, DMSO was kept constant at 0.1% final concentration. The day before starting treatment, cells were seeded in 96-well plates, at a density of 2000 cells/well. Cells were allowed to attach overnight and then incubated with compounds at different final concentrations, or with DMSO only, for 24, 48 and 72 hours. All experiments were performed in triplicate.
# (§2) Cell proliferation was determined using a colorimetric assay with 3-(4,5-dimethylthiazol-2-yl)-2,5-diphenyl tetrazolium bromide (MTT). The MTT assay measures the conversion of MTT to insoluble formazan by dehydrogenase enzymes of the intact mitochondria of living cells. Cell proliferation was evaluated by measuring the conversion of the tetrazolium salt MTT to formazan crystals upon treatment with compounds or DMSO only for 24, 48 and 72 hours. Briefly, cells were incubated for 2 hours at 37° C. with 100 μl fresh culture medium containing 5 μl of MTT reagent (5 mg/ml in PBS). The medium was removed and 200 μl isopropanol were added. The amount of formazan crystals formed correlated directly with the number of viable cells. The reaction product was quantified by measuring the absorbance at 540 nm using an ELISA plate reader. Experiments were repeated three times. Results were expressed as percentage of the control (control equals 100% and corresponds to the absorbance value of each sample at time zero) and presented as mean values±standard deviation of three independent experiments performed in triplicate.
# (§3) Data were analysed using GraphPad Prism software for Windows (GraphPad Software, San Diego, CA). Significant differences between groups were determined using the one-way analysis of variance (ANOVA). A p value <0.05 was considered as statistically significant.
# [2] = tested on: T24 human bladder cancer cell line; assay: MTT cell proliferation assay, T24; type: cell-based; details: for % of DMSO control at 100 μM, T24, 24 h: 24 h incubation; for % of DMSO control at 100 μM, T24, 48 h: 48 h incubation; for % of DMSO control at 100 μM, T24, 72 h: 72 h incubation
# Method: as §1, §2, §3
# [3] = tested on: A549 human lung cancer line; assay: MTT cell proliferation assay, A549; type: cell-based; details: for % of DMSO control at 100 μM, A549, 24 h: 24 h incubation; for % of DMSO control at 100 μM, A549, 48 h: 48 h incubation; for % of DMSO control at 100 μM, A549, 72 h: 72 h incubation
# Method: as §1, §2, §3
# NNMT = molecular target: T1, NNMT (Homo sapiens, UniProt P40261); assay: NNMT assay (HILIC-MS/MS, formation of MNA); details: NA 200 μM, SAM 8.5 μM
# T1 sequence (P40261 1-264): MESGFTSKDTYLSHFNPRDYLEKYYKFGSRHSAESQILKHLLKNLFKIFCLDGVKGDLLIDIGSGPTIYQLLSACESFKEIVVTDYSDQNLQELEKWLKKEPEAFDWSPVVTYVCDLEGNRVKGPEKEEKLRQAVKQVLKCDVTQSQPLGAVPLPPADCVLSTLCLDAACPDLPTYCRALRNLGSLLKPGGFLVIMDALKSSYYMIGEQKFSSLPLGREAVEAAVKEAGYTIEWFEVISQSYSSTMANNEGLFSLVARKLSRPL
# [4] = IC50 values (nM), Table 1, alkene linked aromatics, maximum concentration tested 25 μM
# [5] = IC50 values (μM), Table 1, alkene linked aromatics, maximum concentration tested 25 μM
# [6] = IC50 values (nM), Table 3, 1-carbon alkyl linkers, maximum concentration tested 25 μM
# [7] = IC50 values (μM), Table 3, 1-carbon alkyl linkers, maximum concentration tested 25 μM
# [8] = read-out: IC50 values, Table 1, alkene linked aromatics, maximum concentration tested 25 μM
compound,measurement,setting,value
CCOC(=O)[C@H](CCN(C/C=C/c1ccc(C#N)cc1)C[C@H]1O[C@@H](n2cnc3c(N)ncnc32)[C@H](O)[C@@H]1O)NC(=O)CC(C)(C)c1c(C)cc(C)cc1OC(C)=O [NB60],"% of DMSO control at 100 μM, HSC-2, 24 h",[1],79 % of DMSO control
same,"% of DMSO control at 100 μM, HSC-2, 48 h",[1],44 % of DMSO control
same,"% of DMSO control at 100 μM, HSC-2, 72 h",[1],26 % of DMSO control
same,"% of DMSO control at 100 μM, T24, 24 h",[2],100 % of DMSO control
same,"% of DMSO control at 100 μM, T24, 48 h",[2],50 % of DMSO control
same,"% of DMSO control at 100 μM, T24, 72 h",[2],29 % of DMSO control
same,"% of DMSO control at 100 μM, A549, 24 h",[3],100 % of DMSO control
same,"% of DMSO control at 100 μM, A549, 48 h",[3],100 % of DMSO control
same,"% of DMSO control at 100 μM, A549, 72 h",[3],76 % of DMSO control
CCCOC(=O)[C@@H](N)CCN(C/C=C/c1ccc(C#N)cc1)C[C@H]1O[C@@H](n2cnc3c(N)ncnc32)[C@H](O)[C@@H]1O [GYZ-579],"% of DMSO control at 100 μM, HSC-2, 24 h",[1],100 % of DMSO control
same,"% of DMSO control at 100 μM, HSC-2, 48 h",[1],57 % of DMSO control
same,"% of DMSO control at 100 μM, HSC-2, 72 h",[1],63 % of DMSO control
same,"% of DMSO control at 100 μM, T24, 24 h",[2],82 % of DMSO control
same,"% of DMSO control at 100 μM, T24, 48 h",[2],71 % of DMSO control
same,"% of DMSO control at 100 μM, T24, 72 h",[2],100 % of DMSO control
same,"% of DMSO control at 100 μM, A549, 24 h",[3],100 % of DMSO control
same,"% of DMSO control at 100 μM, A549, 48 h",[3],100 % of DMSO control
same,"% of DMSO control at 100 μM, A549, 72 h",[3],100 % of DMSO control
COC(=O)[C@@H](N)CCN(C/C=C/c1ccc(C#N)cc1)C[C@H]1O[C@@H](n2cnc3c(N)ncnc32)[C@H](O)[C@@H]1O [GYZ-494],"% of DMSO control at 100 μM, HSC-2, 24 h",[1],100 % of DMSO control
same,"% of DMSO control at 100 μM, HSC-2, 48 h",[1],100 % of DMSO control
same,"% of DMSO control at 100 μM, HSC-2, 72 h",[1],87 % of DMSO control
same,"% of DMSO control at 100 μM, T24, 24 h",[2],100 % of DMSO control
same,"% of DMSO control at 100 μM, T24, 48 h",[2],76 % of DMSO control
same,"% of DMSO control at 100 μM, T24, 72 h",[2],100 % of DMSO control
same,"% of DMSO control at 100 μM, A549, 24 h",[3],100 % of DMSO control
same,"% of DMSO control at 100 μM, A549, 48 h",[3],100 % of DMSO control
same,"% of DMSO control at 100 μM, A549, 72 h",[3],88 % of DMSO control
Nc1ncnc2c1ncn2[C@@H]1O[C@H](CN(C/C=C/c2c(F)c(F)cc(F)c2F)CC[C@H](N)C(=O)O)[C@@H](O)[C@H]1O [MH612],IC50,NNMT; [4],1810 nM
same,IC50,NNMT; [5],1810 nM
CC(=O)N(C/C=C/c1ccc(C#N)cc1)C[C@H]1C[C@@H](n2ccc3c(Cl)ncnc32)[C@H](O)[C@@H]1O [CM035],IC50,"NNMT; IC50 values (nM), Table 9, compounds CM035 and CM037",3580 nM
same,IC50,"NNMT; IC50 values (μM), Table 9, compounds CM035 and CM037",3580 nM
Nc1ncnc2c1ncn2[C@@H]1O[C@H](CN(CC[C@H](N)C(=O)O)Cc2ccccc2C(F)(F)F)[C@@H](O)[C@H]1O [GYZ-415],IC50,NNMT; [6],9700 nM
same,IC50,NNMT; [7],9700 nM
Nc1ncnc2c1ncn2[C@@H]1O[C@H](CN(CC[C@H](N)C(=O)O)Cc2ccc([N+](=O)[O-])cc2)[C@@H](O)[C@H]1O [GYZ-420],IC50,NNMT; [6],6610 nM
same,IC50,NNMT; [7],6610 nM
N#Cc1ccc(/C=C/CN(CC[C@H](N)C(=O)O)C[C@H]2O[C@@H](n3cnc4c(N)ncnc43)[C@H](O)[C@@H]2O)cc1F [GYZ-658],IC50,NNMT; [8],< 5 nM
Nc1ncnc2c1ncn2[C@@H]1O[C@H](CN(CC[C@H](N)C(=O)O)Cc2cccc([N+](=O)[O-])c2)[C@@H](O)[C@H]1O [GYZ-419],IC50,NNMT; [6],320 nM
same,IC50,NNMT; [7],320 nM
C=CC(=O)CCCN(C/C=C/c1ccc(C#N)cc1)C[C@H]1O[C@@H](n2cnc3c(N)ncnc32)[C@H](O)[C@@H]1O [GYZ-704],IC50,"NNMT; read-out: IC50 values, Table 6, amino acid replacement, maximum concentration tested 25 μM",538 nM
Nc1ncnc2c1ncn2[C@@H]1O[C@H](CN(C/C=C/c2cccc(S(=O)(=O)F)c2)CC[C@H](N)C(=O)O)[C@@H](O)[C@H]1O [GYZ-764],IC50,NNMT; [8],89 nM and 88.6 nM
N#Cc1ccc(/C=C/CN(C/C=C/c2ccc(C#N)cc2)C[C@H]2O[C@@H](n3cnc4c(N)ncnc43)[C@H](O)[C@@H]2O)cc1 [GYZ-466],IC50,"NNMT; IC50 values (nM), Table 6, amino acid replacement, maximum concentration tested 25 μM",> 25000 nM
same,IC50,"NNMT; IC50 values (μM), Table 6, amino acid replacement, maximum concentration tested 25 μM",> 25000 nM
Nc1ncnc2c1ncn2[C@@H]1O[C@H](CN(C/C=C/c2ccc(B(O)O)cc2)CC[C@H](N)C(=O)O)[C@@H](O)[C@H]1O [GYZ-732],IC50,NNMT; [8],> 25000 nM
Nc1ncnc2c1ncn2[C@@H]1O[C@H](CN(C/C=C/c2cc(F)c(F)c(F)c2)CC[C@H](N)C(=O)O)[C@@H](O)[C@H]1O [MH611],IC50,NNMT; [4],363 nM
same,IC50,NNMT; [5],363 nM
Nc1ncnc2c1ncn2[C@@H]1O[C@H](CN(C/C=C/c2ccc(C(F)(F)F)cc2)CC[C@H](N)C(=O)O)[C@@H](O)[C@H]1O [GYZ-350],IC50,NNMT; [8],1390 nM
